Experiments:
myeloperoxidase (MPO) [1] = molecular target: T1, myeloperoxidase (MPO) (Homo sapiens (Human), UniProt P05164); assay: MPO peroxidation assay (Amplex Red assay); format: biochemical; settings: potency range class
Method: MPO Peroxidation Assay (Amplex Red Assay) MPO peroxidation activity was measured in 100 mM KPi (pH 7.4) by utilizing the non-fluorescent reagent Amplex Red (Invitrogen Cat. #A12222) which can be oxidized to the highly fluorescent resorufin. Amplex Red is oxidized by the peroxidase action of MPO to resorufin. Reactions were carried out in 50 μL total volume by adding a 25 μL mixture of 200 pM myeloperoxidase and 40 nM H2O2(Sigma #349887) to 100 nL inhibitor in 100% DMSO in a 384 well Perkin Elmer Optiplate. Enzyme and compound were preincubated for ten minutes at room temperature. After the ten minute preincubation, 25 μL of an Amplex Red mixture containing 200 μM Amplex Red and 10 mM H2O2 was added to the plate. Kinetic determinations were carried out immediately on a Perkin Elmer Envision (15 minute kinetic read, Ex: 535 nm, Em: 590 nm). IC50 values were calculated by determining the slope of the linear portion of the kinetic trace (180-540 secs), and using that calculated slope to determine % inhibition occurring at each concentration of inhibitor using the following equation: [formula] where A=minimal Y value (activity level of inhibited sample), B=maximal Y value (activity level of uninhibited sample), C=Log IC50, D=Hill Slope, x=concentration of inhibitor. MPO Chlorination Assay (APF Assay)

myeloperoxidase (MPO) [2] = molecular target: T1, myeloperoxidase (MPO); assay: MPO chlorination assay (APF assay); format: biochemical; settings: potency range class
Method: [formula] where A=minimal Y value (activity level of inhibited sample), B=maximal Y value (activity level of uninhibited sample), C=Log IC50, D=Hill Slope, x=concentration of inhibitor. MPO Chlorination Assay (APF Assay) MPO chlorination activity was measured in 100 mM KPi (pH 7.4) by utilizing the non-fluorescent reagent Aminophenyl fluorescein (APF, Invitrogen Cat. #A36003). APF is cleaved by (—OCl) to yield the fluorescent compound fluorescein. Reactions were carried out in 50 μL total volume by adding a 25 μL mixture of 200 pM myeloperoxidase and 120 mM NaCl to 100 nL inhibitor in 100% DMSO in a 384 well, non-binding surface clear bottom plate (Corning #3655). Enzyme, inhibitor, and chloride were preincubated for ten minutes at room temperature. After the ten minute preincubation, 25 μL of an APF mixture containing […], 120 mM NaCl and 10 μM H2O2 was added to the plate using the internal dispensing system of a Hammatsu FDSS 6000. Kinetic determinations were carried out immediately on the FDSS 6000 (3 minute kinetic read, 1 read every second, ex: 485 nm, em: 535 nm). IC50 values for inhibitors were calculated by taking the slope of the linear portion of the kinetic measurement (20 seconds to ˜80-120 secs). IC50 values were calculated by determining the slope of the linear portion of the kinetic trace […], and using that calculated slope to determine % inhibition occurring at each concentration of inhibitor using the following equation: [formula] where A=minimal Y value (activity level of inhibited sample), B=maximal Y value (activity level of uninhibited sample), C=Log IC50, D=Hill Slope, x=concentration of inhibitor. EPX Bromination Assay

T1 sequence (P05164 49-745): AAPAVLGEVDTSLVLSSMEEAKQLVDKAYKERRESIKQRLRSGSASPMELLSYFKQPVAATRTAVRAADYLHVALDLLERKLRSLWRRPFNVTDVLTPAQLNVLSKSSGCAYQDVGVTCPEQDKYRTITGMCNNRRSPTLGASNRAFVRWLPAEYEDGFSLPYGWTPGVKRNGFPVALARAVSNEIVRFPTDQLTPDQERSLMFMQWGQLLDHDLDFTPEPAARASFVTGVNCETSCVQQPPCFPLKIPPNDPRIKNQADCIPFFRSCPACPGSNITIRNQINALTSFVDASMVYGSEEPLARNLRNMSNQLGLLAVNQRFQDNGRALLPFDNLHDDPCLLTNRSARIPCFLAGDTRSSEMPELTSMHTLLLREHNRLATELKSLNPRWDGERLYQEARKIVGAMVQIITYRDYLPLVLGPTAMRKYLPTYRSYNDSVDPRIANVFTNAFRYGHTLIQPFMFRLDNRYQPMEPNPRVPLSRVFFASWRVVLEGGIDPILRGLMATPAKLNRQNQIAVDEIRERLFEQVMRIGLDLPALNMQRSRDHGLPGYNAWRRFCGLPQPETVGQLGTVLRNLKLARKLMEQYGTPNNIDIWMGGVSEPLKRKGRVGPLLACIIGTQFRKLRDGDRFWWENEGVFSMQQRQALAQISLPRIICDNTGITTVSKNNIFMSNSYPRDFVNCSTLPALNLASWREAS

| SMILES | IC50 (myeloperoxidase (MPO) [1]) [nM] | IC50 (myeloperoxidase (MPO) [2]) [nM] |
| --- | --- | --- |
| Nc1cc(Cc2cnn(Cc3cccc(C4CCNC4)c3)c2)c2nn[nH]c2n1 (stereo in doubt) [Example 191, 7-{[1-({3-[(3S)-Pyrrolidin-3-yl]phenyl}yl]methyl}-3H-[1,2,3]triazolo[4,5-b]pyridin-5-amine] | 1 to 100 | 1 to 100 |
| Cc1c(Cc2cc(N)nc3[nH]nnc23)cnn1-c1ccc(F)cc1 [Example 2, 7-((1-(4-Fluorophenyl)-5-methyl-1H-pyrazol-4-yl)methyl)-3H-triazolo[4,5-b]pyridin-5-amine] | 101 to 999 | 101 to 999 |
| Nc1cc(Cc2cnn(-c3cccc(F)c3)c2)c2nn[nH]c2n1 [Example 3, 7-((1-(3-Fluorophenyl)-1H-pyrazol-4-yl)methyl)-3H-[1,2,3]triazolo[4,5-b]pyridin-5-amine] | 1 to 100 | 101 to 999 |
| Nc1cc(Cc2cnn(-c3ccccc3F)c2)c2nn[nH]c2n1 [Example 4, 7-((1-(2-Fluorophenyl)-1H-pyrazol-4-yl)methyl)-3H-[1,2,3]triazolo[4,5-b]pyridin-5-amine] | 1 to 100 | 1 to 100 |
| Nc1cc(Cc2cnn(-c3ccccc3)n2)c2nn[nH]c2n1 [Example 6, 7-((2-Phenyl-2H-1,2,3-triazol-4-yl)methyl)-3H-[1,2,3]triazolo[4,5-b]pyridin-5-amine] | 101 to 999 | 101 to 999 |
| Nc1cc(Cc2cnn(-c3cccc(Cl)c3)c2)c2nn[nH]c2n1 [Example 7, 7-((1-(3-Chlorophenyl)-1H-pyrazol-4-yl)methyl)-3H-[1,2,3]triazolo[4,5-b]pyridin-5-amine] | 1 to 100 | 1 to 100 |
| Nc1cc(Cc2cnn(-c3cccc4ccccc34)c2)c2nn[nH]c2n1 [Example 9, 7-((1-(Naphthalen-1-yl)-1H-pyrazol-4-yl)methyl)-3H-[1,2,3]triazolo[4,5-b]pyridin-5-amine] | 1 to 100 | 1 to 100 |
| Cc1cc(-n2cc(Cc3cc(N)nc4[nH]nnc34)cn2)ccc1F [Example 10, 7-((1-(4-Fluoro-3-methylphenyl)-1H-pyrazol-4-yl)methyl)-3H-[1,2,3]triazolo[4,5-b]pyridin-5-amine] | 1 to 100 | 101 to 999 |
| Nc1cc(Cc2cnn(-c3cccc(-c4ccccc4)c3)c2)c2nn[nH]c2n1 [Example 11, 7-((1-([1,1′-Biphenyl]-3-yl)-1H-pyrazol-4-yl)methyl)-3H-[1,2,3]triazolo[4,5-b]pyridin-5-amine] | 1 to 100 | 1 to 100 |
| Nc1cc(Cc2cnn(-c3cccc(C(F)(F)F)c3)c2)c2nn[nH]c2n1 [Example 14, 7-((1-(3-(Trifluoromethyl)phenyl)-1H-pyrazol-4-yl)methyl)-3H-[1,2,3]triazolo[4,5-b]pyridin-5-amine] | 1 to 100 | 101 to 999 |
| Cc1ccnc(-n2cc(Cc3cc(N)nc4[nH]nnc34)cn2)c1 [Example 19, 7-((1-(4-Methylpyridin-2-yl)-1H-pyrazol-4-yl)methyl)-3H-[1,2,3]triazolo[4,5-b]pyridin-5-amine] | 1 to 100 | 1 to 100 |
| Cc1cccc(-n2cc(Cc3cc(N)nc4[nH]nnc34)cn2)n1 [Example 20, 7-((1-(6-Methylpyridin-2-yl)-1H-pyrazol-4-yl)methyl)-3H-[1,2,3]triazolo[4,5-b]pyridin-5-amine] | 1 to 100 | 1 to 100 |
| Nc1cc(Cc2cnn(-c3cccc(Cc4ccccc4)c3)c2)c2nn[nH]c2n1 [Example 21, 7-((1-(3-Benzylphenyl)-1H-pyrazol-4-yl)methyl)-3H-[1,2,3]triazolo[4,5-b]pyridin-5-amine] | 1 to 100 | 101 to 999 |
| Cc1ccccc1-n1cc(Cc2cc(N)nc3[nH]nnc23)cn1 [Example 24, 7-((1-(2-Methylphenyl)-1H-pyrazol-4-yl)methyl)-3H-[1,2,3]triazolo[4,5-b]pyridin-5-amine] | 101 to 999 | 1 to 100 |
| Cc1cccc(-n2cc(Cc3cc(N)nc4[nH]nnc34)cn2)c1 [Example 25, 7-((1-(3-Methylphenyl)-1H-pyrazol-4-yl)methyl)-3H-[1,2,3]triazolo[4,5-b]pyridin-5-amine] | 1 to 100 | 101 to 999 |
| Nc1cc(Cc2cnn(-c3ccccn3)c2)c2nn[nH]c2n1 [Example 31, 7-((1-(Pyridin-2-yl)-1H-pyrazol-4-yl)methyl)-3H-[1,2,3]triazolo[4,5-b]pyridin-5-amine] | 1 to 100 | 1 to 100 |
| Nc1cc(Cc2ccn(-c3ccccc3)n2)c2nn[nH]c2n1 [Example 33, 7-((1-Phenyl-1H-pyrazol-3-yl)methyl)-3H-[1,2,3]triazolo[4,5-b]pyridin-5-amine] | 101 to 999 | 101 to 999 |
| Nc1cc(Cc2cnn(-c3cccc(COc4ccccc4)c3)c2)c2nn[nH]c2n1 [Example 36, 7-((1-(3-(Phenoxymethyl)phenyl)-1H-pyrazol-4-yl)methyl)-3H-[1,2,3]triazolo[4,5-b]pyridin-5-amine] | 1 to 100 | 101 to 999 |
| Nc1cc(Cc2cnn(Cc3ccc(-c4ccccc4)cc3)c2)c2nn[nH]c2n1 [Example 39, 7-((1-([1,1′-Biphenyl]-4-ylmethyl)-1H-pyrazol-4-yl)methyl)-3H-[1,2,3]triazolo[4,5-b]pyridin-5-amine] | 1 to 100 | 101 to 999 |
| Nc1cc(Cc2cnn(CCc3ccccc3)c2)c2nn[nH]c2n1 [Example 40, 7-((1-Phenethyl-1H-pyrazol-4-yl)methyl)-3H-[1,2,3]triazolo[4,5-b]pyridin-5-amine] | 1 to 100 | 1 to 100 |
| Nc1cc(Cc2cnn(Cc3cccc4ccccc34)c2)c2nn[nH]c2n1 [Example 41, 7-((1-(Naphthalen-1-ylmethyl)-1H-pyrazol-4-yl)methyl)-3H-[1,2,3]triazolo[4,5-b]pyridin-5-amine] | 1 to 100 | 1 to 100 |
| Nc1cc(Cc2cnn(Cc3ccc4ccccc4c3)c2)c2nn[nH]c2n1 [Example 42, 7-((1-(Naphthalen-2-ylmethyl)-1H-pyrazol-4-yl)methyl)-3H-[1,2,3]triazolo[4,5-b]pyridin-5-amine] | 1 to 100 | 1 to 100 |
| Cc1ccccc1Cn1cc(Cc2cc(N)nc3[nH]nnc23)cn1 [Example 43, 7-((1-(2-Methylbenzyl)-1H-pyrazol-4-yl)methyl)-3H-[1,2,3]triazolo[4,5-b]pyridin-5-amine] | 1 to 100 | 101 to 999 |
| Nc1cc(Cc2cnn(Cc3cccc(-c4ccccc4)c3)c2)c2nn[nH]c2n1 [Example 44, 7-((1-([1,1′-Biphenyl]-3-ylmethyl)-1H-pyrazol-4-yl)methyl)-3H-[1,2,3]triazolo[4,5-b]pyridin-5-amine] | 1 to 100 | 1 to 100 |
| Nc1cc(Cc2cnn(Cc3ccc(Cl)cc3)c2)c2nn[nH]c2n1 [Example 45, 7-((1-(4-Chlorobenzyl)-1H-pyrazol-4-yl)methyl)-3H-[1,2,3]triazolo[4,5-b]pyridin-5-amine] | 1 to 100 | 1 to 100 |
| Nc1cc(Cc2cnn(Cc3ccc(C(=O)O)cc3)c2)c2nn[nH]c2n1 [Example 46, 4-((4-((5-Amino-3H-[1,2,3]triazolo[4,5-b]pyridin-7-yl)methyl)-1H-pyrazol-1-yl)methyl)benzoic acid] | 1000 to 10000 | 1000 to 10000 |
| Nc1cc(Cc2cc(-c3ccccc3)no2)c2nn[nH]c2n1 [Example 48, 7-((3-Phenylisoxazol-5-yl)methyl)-3H-[1,2,3]triazolo[4,5-b]pyridin-5-amine] | 101 to 999 | 101 to 999 |

— patent US10407422B2, “Triazolopyridine inhibitors of myeloperoxidase” (priority 2015, dated 2019)
